Values after ≈ are worked out from the molar mass of the structure shown.

The record followed here is patent US6420367B1, “Pyrimidine derivatives exhibiting antitumor activity” (Shionogo & Co., Ltd., priority 1998, dated 2002).

The test system of assay [1] is DT-R cells (pRRE3-luc-transfected v-ki-ras-transformed NIH3T3 cells); signal derived from Ras oncogene products. Kind of assay: Inhibitory effect against cellular signaling derived from Ras oncogene products: luciferase reporter, dissociation of DT-R from DT-C activity (MAC). The format is cell-based, mouse. Conditions: minimal tested concentration at which luciferase activities of DT-C cells and DT-R cells dissociated. From the text:
Test Example 1 Inhibitory Effect Against Cellular Signaling Derived From Ras Oncogene Products
1) Establishment of Cell Lines Used in Assay
Based on the reporter plasmid (pGV-P (Toyo Ink, Japan)), in which luciferase gene was ligated to SV40-derived minimal promoter, we constructed a plasmid designated pRRE3-luc by inserting 3 copies of chemically synthesized oligonucleotides (Sequence: CAGGATATGACTCT, derived from mouse NVL-3 (M. A. Reddy et al.(1992)Mol. Endocrinol., 6, 1051)) into upstream of the promoter. v-ki-ras-transformed NIH3T3 cells (DT cells, provided by Dr. Makoto Noda (Kyoto Univ., School of medicine)) were transfected with this plasmid by liposome-mediated transfection and transfected cell lines stably incorporated and maintained each plasmid were obtained. We named pGV-P and pRRE3-transfected cell line as DT-C and DT-R, respectively and used in the assay described below.
2) Preparation of Samples
i) All the cell lines were cultured in Dulbecco's Modified Essential Medium (DMEM: 10% Fetal Calf Serum(FCS: Hyclone, USA)) including […] kanamycin (Meiji Seika, Japan) in humidified incubator under condition of 5% CO2 at 37° C.
ii) DT-C and DT-R cells were seeded at 2500 cells/well into flat-bottom 96 well multiplate (Sumitomo bakelite) and incubated for 24 hours.
iii) Test compounds were prepared as 1 mg/ml DMSO solution.
iv) The solution of test compounds were added to the culture. Tested compounds are used at the concentration from […] to 0.51 ng/ml with by 3-fold dilution.
v) After 24 hours, the culture supernatant was completely aspirated and […] of cell-lysing solution (PGC-50 (Toyo Ink, Japan)) was added before cells were dried up. In order to the cells were lysed completely, multiwell plates were left at room temperature for 10 to 30 min. The plates were wrapped up and stored at −20° C. till the day of measurement.
3) Measurement of Samples
i) Melt the samples by putting 96 well multiplate at 37° C. and add 90 μl/well 25 mM Tris (pH 7.5).
ii) Transfer 50 μl of the sample (110 μl) to the 96 well microplate for measurement (Microlite 1 (Dynatech)).
iii) Measure the samples by the luminometer, LUMINOUS CT9000D (Dia-Yatron, Japan). We used Pickagene luminescence kit PGL2000 or LT2.0 (Toyo Ink, Japan) as substrates for luminescence measurement (50 μl/well).
4) Judgment of the Results
i) The luciferase activity of DT-C cells and DT-R cells were plotted in the graph where the relative activity and the compound concentration were expressed as Y-axis and X-axis, respectively. We judged by the degree of dissociation between the activities of DT-C cells and DT-R cells as an index.
ii) Concretely, efficacy of the compound was expressed by two values described below.
a) Among the points of concentration tested, the minimal concentration (Minimal Active Concentration: MAC), at which the activities of DT-C cells and DT-R cells dissociated, was shown as an index of efficacy of the compound.

Assay [2] deals with human colon cancer HT29. Nature of the assay: In vitro cell growth inhibition test, MTT assay. It counts as cell-based. Conditions: MTT assay 4 days after compound addition. From the text:
(§1) Test Example 2 In Vitro Cell Growth Inhibition Test Cells and MTT Assay
(§2) Human squamous lung cancer […], human squamous lung cancer Ma44, human lung adenocarcinoma A549, human colon cancer HT29 and human pancreas cancer PANC-1 were used.
Background: Tetrazolium dyes change colour on reduction, which living cells bring about.

The subject of assay [3] is human lung adenocarcinoma A549. Nature of the assay: In vitro cell growth inhibition test, MTT assay. The format is cell-based. Conditions: MTT assay 4 days after compound addition.
Source text: as §1, §2

For assay [4], the system named is human pancreas cancer PANC-1. Nature of the assay: In vitro cell growth inhibition test, MTT assay. It counts as cell-based. The note with it: MTT assay 4 days after compound addition.
Source text: as §1, §2

In assay [5] the test system is human squamous lung cancer Ma44. Kind of assay: In vitro cell growth inhibition test, MTT assay. The format is cell-based. The note with it: MTT assay 4 days after compound addition.
Source text: as §1, §2

In assay [6] the test system is human squamous lung cancer RERF-RC-AI. Kind of assay: In vitro cell growth inhibition test, MTT assay. It counts as cell-based. The note with it: MTT assay 4 days after compound addition.
Source text: as §1, §2

Turning to `CCNC(=Nc1nc(C)ncc1CSc1nnc(-c2ccc(N)c(C)c2)o1)NCC` [Compound A-71], the “MAC (Minimal Active Concentration)” value in assay [1] is 1.11 µg/mL. Further, in assay [2], the “IC50, HT29” value worked out at 0.093 mg/L (≈ 0.218 µM). Also, in assay [3], the “IC50, A549” value was determined as 0.72 mg/L (≈ 1.69 µM). Further, the “IC50, PANC-1” value in assay [4] turned out to be 0.18 mg/L (≈ 0.422 µM). Moreover, in assay [5], the “IC50, Ma44” value is 0.31 mg/L (≈ 0.727 µM). In addition, the “IC50, RERF-LC-AI” value in assay [6] was found to be 0.077 mg/L (≈ 0.181 µM).
Consider `CCNC(=Nc1nc(C)ncc1CSc1nnc(-c2ccc(C)cc2)o1)NCC` [Compound A-74], for which, in assay [1], the “MAC (Minimal Active Concentration)” value worked out at 0.123 µg/mL. Moreover, in assay [2], the “IC50, HT29” value came to 0.01 mg/L (≈ 0.0243 µM). The “IC50, A549” value in assay [3] amounted to 0.034 mg/L (≈ 0.0826 µM). The “IC50, PANC-1” value in assay [4] was found to be 0.017 mg/L (≈ 0.0413 µM). Further, the “IC50, Ma44” value in assay [5] was 0.012 mg/L (≈ 0.0292 µM). In addition, the “IC50, RERF-LC-AI” value in assay [6] is 0.008 mg/L (≈ 0.0194 µM).
As to `CCNC(=Nc1nc(C)ncc1CSc1nnc(-c2ccc(N)cc2N)o1)NCC` [Compound A-76], in assay [1], the “MAC (Minimal Active Concentration)” value worked out at 0.0137 µg/mL. The “IC50, HT29” value in assay [2] was 0.008 mg/L (≈ 0.0187 µM). Besides, in assay [3], the “IC50, A549” value came to 0.02 mg/L (≈ 0.0468 µM). Further, in assay [4], the “IC50, PANC-1” value was 0.016 mg/L (≈ 0.0374 µM). Also, in assay [5], the “IC50, Ma44” value turned out to be 0.1 mg/L (≈ 0.234 µM). Moreover, the “IC50, RERF-LC-AI” value in assay [6] turned out to be 0.008 mg/L (≈ 0.0187 µM).
As to `CCNC(=Nc1nc(C)ncc1CSc1nnc(-c2ccc([N+](=O)[O-])cc2)o1)NCC` [Compound A-82], in assay [1], the “MAC (Minimal Active Concentration)” value is less than 0.000508 µg/mL. For the same molecule, the “IC50, HT29” value in assay [2] came to 0.006 mg/L (≈ 0.0136 µM). Further, in assay [3], the “IC50, A549” value was 0.031 mg/L (≈ 0.0701 µM). In addition, the “IC50, PANC-1” value in assay [4] stood at 0.014 mg/L (≈ 0.0316 µM). In assay [5], the “IC50, Ma44” value is 0.014 mg/L (≈ 0.0316 µM). For the same molecule, in assay [6], the “IC50, RERF-LC-AI” value stood at 0.008 mg/L (≈ 0.0181 µM).
As for `CCNC(=Nc1ncncc1CSc1nnc(-c2ccc(SC)cc2)o1)NCC` [Compound A-120], the “MAC (Minimal Active Concentration)” value in assay [1] was 0.123 µg/mL. The “IC50, HT29” value in assay [2] came out at 0.023 mg/L (≈ 0.0535 µM). For the same molecule, the “IC50, A549” value in assay [3] turned out to be 1.3 mg/L (≈ 3.03 µM). Besides, the “IC50, PANC-1” value in assay [4] turned out to be 0.055 mg/L (≈ 0.128 µM). In assay [5], the “IC50, Ma44” value is 0.1 mg/L (≈ 0.233 µM). Also, in assay [6], the “IC50, RERF-LC-AI” value worked out at 0.024 mg/L (≈ 0.0559 µM).
Regarding `CCNC(=Nc1ncncc1CSc1nnc(-c2ccc([N+](=O)[O-])cc2)o1)NCCN` [Compound A-122], in assay [1], the “MAC (Minimal Active Concentration)” value was 1.11 µg/mL. Besides, the “IC50, HT29” value in assay [2] came out at 0.089 mg/L (≈ 0.201 µM). In assay [3], the “IC50, A549” value worked out at 2.1 mg/L (≈ 4.74 µM). In addition, the “IC50, PANC-1” value in assay [4] is 0.21 mg/L (≈ 0.474 µM). For the same molecule, in assay [5], the “IC50, Ma44” value was determined as 0.3 mg/L (≈ 0.676 µM). Moreover, in assay [6], the “IC50, RERF-LC-AI” value stood at 0.14 mg/L (≈ 0.316 µM).
Turning to `CCNC(=Nc1nc(C)ncc1CSc1nnc(-c2ccc([N+](=O)[O-])cc2F)o1)NCC` [Compound A-132], the “MAC (Minimal Active Concentration)” value in assay [1] is 0.123 µg/mL. Moreover, the “IC50, HT29” value in assay [2] is 0.039 mg/L (≈ 0.0847 µM). For the same molecule, in assay [3], the “IC50, A549” value came out at 0.18 mg/L (≈ 0.391 µM). In assay [4], the “IC50, PANC-1” value turned out to be 0.081 mg/L (≈ 0.176 µM). Moreover, the “IC50, Ma44” value in assay [5] was 0.077 mg/L (≈ 0.167 µM). For the same molecule, the “IC50, RERF-LC-AI” value in assay [6] turned out to be 0.05 mg/L (≈ 0.109 µM).
As for `CCNC(=Nc1nc(C)ncc1CSc1nnc(-c2ccc([N+](=O)[O-])cc2)o1)NC(C)C` [Compound A-134], the “MAC (Minimal Active Concentration)” value in assay [1] was found to be 0.0137 µg/mL. In assay [2], the “IC50, HT29” value is 0.013 mg/L (≈ 0.0285 µM). Also, the “IC50, A549” value in assay [3] came to 0.049 mg/L (≈ 0.107 µM). Besides, in assay [4], the “IC50, PANC-1” value worked out at 0.025 mg/L (≈ 0.0548 µM). Moreover, in assay [5], the “IC50, Ma44” value amounted to 0.026 mg/L (≈ 0.057 µM). For the same molecule, in assay [6], the “IC50, RERF-LC-AI” value came to 0.016 mg/L (≈ 0.035 µM).
For `CCCNC(=Nc1nc(C)ncc1CSc1nnc(-c2ccc([N+](=O)[O-])cc2)o1)NCC` [Compound A-135], the “MAC (Minimal Active Concentration)” value in assay [1] worked out at 0.0137 µg/mL. In addition, in assay [2], the “IC50, HT29” value amounted to 0.01 mg/L (≈ 0.0219 µM). Moreover, the “IC50, A549” value in assay [3] came out at 0.052 mg/L (≈ 0.114 µM). Besides, the “IC50, PANC-1” value in assay [4] is 0.017 mg/L (≈ 0.0372 µM). The “IC50, Ma44” value in assay [5] worked out at 0.016 mg/L (≈ 0.035 µM). Besides, the “IC50, RERF-LC-AI” value in assay [6] was 0.012 mg/L (≈ 0.0263 µM).
